Literature values, collected in US11478425B2, “Extended release compositions comprising pyridostigmine” (priority 2017, dated 2022).

## CN(C)C(=O)Oc1ccc[n+](C)c1 [pyridostigmine]
NDA #020414
  bioavailability: 10-20%
oral
  elimination half-life: 3 to 5 h
  time-to-maximum peak plasma concentration: 1 to 2 h
